For the experiment, the target named is T1, human PAH with the R408W mutation (Homo sapiens, UniProt P00439, R408W).
T1 construct: expressed in transfected cells
T1 sequence (P00439 1-452 R408W): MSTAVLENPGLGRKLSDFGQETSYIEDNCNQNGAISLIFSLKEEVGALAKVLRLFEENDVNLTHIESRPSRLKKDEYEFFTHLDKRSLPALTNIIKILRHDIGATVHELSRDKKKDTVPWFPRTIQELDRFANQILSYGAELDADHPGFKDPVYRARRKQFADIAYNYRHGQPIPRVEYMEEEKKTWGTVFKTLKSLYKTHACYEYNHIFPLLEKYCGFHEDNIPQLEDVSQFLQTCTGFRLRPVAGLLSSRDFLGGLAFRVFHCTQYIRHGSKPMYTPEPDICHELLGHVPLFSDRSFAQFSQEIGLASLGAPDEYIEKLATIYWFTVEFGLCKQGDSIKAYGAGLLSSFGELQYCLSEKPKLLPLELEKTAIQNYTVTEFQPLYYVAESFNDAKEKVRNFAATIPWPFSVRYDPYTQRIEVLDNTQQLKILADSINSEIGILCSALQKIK
As to the kind of experiment: Cell Based Phenylalanine Flux Assay.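 Also: after compound treatment, cells received sepiapterin plus isotope-labelled Phenylalanine for 4 hours, then labelled Tyrosine in the medium was quantified, 10-point 2-fold dilution series run in duplicate.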 As to conditions: A375 cells expressing human R408W PAH; 24 hrs compound incubation; 13C-Tyrosine by LC-MS; average where tested multiple times; read-out: AC50.
As usually defined, the AC50 is the concentration giving half of the maximal activity seen. `Cn1cc(-c2nnc(C(=O)N3CCc4[nH]cnc4[C@H]3c3cc4cccc(Cl)n4n3)o2)cn1` [Example 1066, (S)-(4-(7-chloropyrazolo[1,5-a]pyridin-2-yl)-6,7-dihydro-1H-imidazo[4,5-c]pyridin-5(4H)-yl)(5-(1-methyl-1H-pyrazol-4-yl)-1,3,4-oxadiazol-2-yl)methanone]: the AC50 was under 500 nM. With `O=C(c1ocnc1C(F)F)N1CCc2[nH]cnc2[C@H]1c1cc2ccc(F)cn2n1` [Example 1068, (S)-(4-(difluoromethyl)oxazol-5-yl)(4-(6-fluoropyrazolo[1,5-a]pyridin-2-yl)-6,7-dihydro-1H-imidazo[4,5-c]pyridin-5(4H)-yl)methanone], the AC50 was under 500 nM. Take `O=C(c1ocnc1C(F)F)N1CCc2[nH]cnc2[C@@H]1c1cc2ccc(F)cn2n1` [Example 1069, (R)-(4-(difluoromethyl)oxazol-5-yl)(4-(6-fluoropyrazolo[1,5-a]pyridin-2-yl)-6,7-dihydro-1H-imidazo[4,5-c]pyridin-5(4H)-yl)methanone]: the AC50 fell in the range of 1000 to 5000 nM.

In the case of `CC(C)(O)c1nc(C(F)F)c(C(=O)N2CCc3[nH]cnc3[C@H]2c2cc3ccc(F)cn3n2)o1` [Example 1070, (S)-(4-(difluoromethyl)-2-(2-hydroxypropan-2-yl)oxazol-5-yl)(4-(6-fluoropyrazolo[1,5-a]pyridin-2-yl)-6,7-dihydro-1H-imidazo[4,5-c]pyridin-5(4H)-yl)methanone], the AC50 is under 500 nM. In the case of `CC(C)(O)c1nc(C(F)F)c(C(=O)N2CCc3[nH]cnc3[C@@H]2c2cc3ccc(F)cn3n2)o1` [Example 1071, (R)-(4-(difluoromethyl)-2-(2-hydroxypropan-2-yl)oxazol-5-yl)(4-(6-fluoropyrazolo[1,5-a]pyridin-2-yl)-6,7-dihydro-1H-imidazo[4,5-c]pyridin-5(4H)-yl)methanone] it was over 5000 nM. Turning to `Cn1nc(C2CC2)nc1C(=O)N1CCc2[nH]cnc2[C@H]1c1cc2c(Cl)cccn2n1` [Example 1072, (S)-(4-(4-chloropyrazolo[1,5-a]pyridin-2-yl)-6,7-dihydro-1H-imidazo[4,5-c]pyridin-5(4H)-yl)(3-cyclopropyl-1-methyl-1H-1,2,4-triazol-5-yl)methanone], the AC50 lay in the range of 500 to 1000 nM. In the case of `Cc1cccn2nc([C@@H]3c4nc[nH]c4CCN3C(=O)c3nc(Cl)nn3C)cc12` [Example 1076, (S)-(3-chloro-1-methyl-1H-1,2,4-triazol-5-yl)(4-(4-methylpyrazolo[1,5-a]pyridin-2-yl)-6,7-dihydro-1H-imidazo[4,5-c]pyridin-5(4H)-yl)methanone], the AC50 was under 500 nM. In the case of `Cn1nc(Cl)nc1C(=O)N1CCc2[nH]cnc2[C@H]1c1cc2c(C(F)(F)F)cccn2n1` [Example 1078, (S)-(3-chloro-1-methyl-1H-1,2,4-triazol-5-yl)(4-(4-(trifluoromethyl)pyrazolo[1,5-a]pyridin-2-yl)-6,7-dihydro-1H-imidazo[4,5-c]pyridin-5(4H)-yl)methanone] it was under 500 nM; in that of `Cn1nc(C2CC2)nc1C(=O)N1CCc2[nH]cnc2[C@H]1c1cc2c(C(F)(F)F)cccn2n1` [Example 1081, (S)-(3-cyclopropyl-1-methyl-1H-1,2,4-triazol-5-yl)(4-(4-(trifluoromethyl)pyrazolo[1,5-a]pyridin-2-yl)-6,7-dihydro-1H-imidazo[4,5-c]pyridin-5(4H)-yl)methanone], under 500 nM; in that of `Cc1nc(C(=O)N2CCc3[nH]cnc3[C@H]2c2cc3c(C(F)(F)F)cccn3n2)n(C)n1` [Example 1082, (S)-(1,3-dimethyl-1H-1,2,4-triazol-5-yl)(4-(4-(trifluoromethyl)pyrazolo[1,5-a]pyridin-2-yl)-6,7-dihydro-1H-imidazo[4,5-c]pyridin-5(4H)-yl)methanone], under 500 nM.

Regarding `CC(C)(O)c1nc(C(F)F)c(C(=O)N2CCc3[nH]cnc3[C@H]2c2cc3cc(F)ccn3n2)o1` [Example 1084, (S)-(4-(difluoromethyl)-2-(2-hydroxypropan-2-yl)oxazol-5-yl)(4-(5-fluoropyrazolo[1,5-a]pyridin-2-yl)-6,7-dihydro-1H-imidazo[4,5-c]pyridin-5(4H)-yl)methanone], the AC50 was under 500 nM. For `CC(C)(O)c1nc(C(F)F)c(C(=O)N2CCc3[nH]cnc3[C@@H]2c2cc3cc(F)ccn3n2)o1` [Example 1085, (R)-(4-(difluoromethyl)-2-(2-hydroxypropan-2-yl)oxazol-5-yl)(4-(5-fluoropyrazolo[1,5-a]pyridin-2-yl)-6,7-dihydro-1H-imidazo[4,5-c]pyridin-5(4H)-yl)methanone], the AC50 was 1000 to 5000 nM.

Turning to `Cc1cccc2cc([C@@H]3c4nc[nH]c4CCN3C(=O)c3nc(Cl)nn3C)nn12` [Example 1086, (S)-(3-chloro-1-methyl-1H-1,2,4-triazol-5-yl)(4-(7-methylpyrazolo[1,5-a]pyridin-2-yl)-6,7-dihydro-1H-imidazo[4,5-c]pyridin-5(4H)-yl)methanone], the AC50 was under 500 nM.

`O=C(c1ccnn1C(F)F)N1CCc2[nH]cnc2[C@H]1c1cc2ccc(F)cn2n1` [Example 1088, (S)-(1-(difluoromethyl)-1H-pyrazol-5-yl)(4-(6-fluoropyrazolo[1,5-a]pyridin-2-yl)-6,7-dihydro-1H-imidazo[4,5-c]pyridin-5(4H)-yl)methanone]: the concentration at half-maximal activity (AC50) lay in the range of 500 to 1000 nM. As to `O=C(c1ccnn1C(F)F)N1CCc2[nH]cnc2[C@@H]1c1cc2ccc(F)cn2n1` [Example 1089, (R)-(1-(difluoromethyl)-1H-pyrazol-5-yl)(4-(6-fluoropyrazolo[1,5-a]pyridin-2-yl)-6,7-dihydro-1H-imidazo[4,5-c]pyridin-5(4H)-yl)methanone], the AC50 is over 5000 nM. Take `O=C(c1nnc(-c2ccccn2)o1)N1CCc2[nH]cnc2[C@H]1c1cc2ccc(F)cn2n1` [Example 1090, (S)-(4-(6-fluoropyrazolo[1,5-a]pyridin-2-yl)-6,7-dihydro-1H-imidazo[4,5-c]pyridin-5(4H)-yl)(5-(pyridin-2-yl)-1,3,4-oxadiazol-2-yl)methanone]: the AC50 lay within 500 to 1000 nM.

Take `O=C(c1nnc(-c2ccccn2)o1)N1CCc2[nH]cnc2[C@@H]1c1cc2ccc(F)cn2n1` [Example 1091, (R)-(4-(6-fluoropyrazolo[1,5-a]pyridin-2-yl)-6,7-dihydro-1H-imidazo[4,5-c]pyridin-5(4H)-yl)(5-(pyridin-2-yl)-1,3,4-oxadiazol-2-yl)methanone]: the AC50 was over 5000 nM. With `O=C(c1ccnn1C(F)F)N1CCc2[nH]cnc2[C@H]1c1cc2cc(F)ccn2n1` [Example 1092, (S)-(1-(difluoromethyl)-1H-pyrazol-5-yl)(4-(5-fluoropyrazolo[1,5-a]pyridin-2-yl)-6,7-dihydro-1H-imidazo[4,5-c]pyridin-5(4H)-yl)methanone], the AC50 lay within 500 to 1000 nM. As to `O=C(c1ccnn1C(F)F)N1CCc2[nH]cnc2[C@@H]1c1cc2cc(F)ccn2n1` [Example 1093, (R)-(1-(difluoromethyl)-1H-pyrazol-5-yl)(4-(5-fluoropyrazolo[1,5-a]pyridin-2-yl)-6,7-dihydro-1H-imidazo[4,5-c]pyridin-5(4H)-yl)methanone], the AC50 lay within 1000 to 5000 nM. Regarding `O=C(c1nnc(C2CC2)o1)N1CCc2[nH]cnc2[C@H]1c1cc2c(Cl)cccn2n1` [Example 1094, (S)-(4-(4-chloropyrazolo[1,5-a]pyridin-2-yl)-6,7-dihydro-1H-imidazo[4,5-c]pyridin-5(4H)-yl)(5-cyclopropyl-1,3,4-oxadiazol-2-yl)methanone], the AC50 is under 500 nM.
